Results as given in US11786468B2, “Nanoparticles” (KING'S COLLEGE LONDON, priority 2015, dated 2023).
Where “and” joins values, the source holds several entries; their conditions need not be identical. Equal entries are not always repeated.

Assays:
[1] = Pharmacokinetics of topotecan in blood by HPLC; format: in vivo, Balb C Mice; conditions: i.v. tail vein, concentration matched
Description: Balb C Mice were injected with IgFUS-TNPs encapsulating topotecan (8 mg/kg per mouse body weight) and drug pharmacokinetics monitored by blood sample analyses. Blood samples (50-100 μL) were collected at time intervals (2 min-4 h) and transferred into pre-weighed plastic vials containing heparin (5 uL). Cold methanol (100 μL) was added to each and the mixed samples stored over dry ice or at −20° C. until required. After thawing, each vial was weighed again and the difference used to estimate then original sample volume. […] Batches of 5 samples were analysed three times using an Agilent 1100 HPLC equipped with a cooled sample chamber (8-12° C.), a guarded Thermo Hypersil 30×4.6 mm, 5 μm C18 column, a Diode Array Detector (UV/vis absorbance) and an Agilent 1260 Infinity fluorescence detector. […] Detection was by absorbance (210/254/280 nm for proteins and other biologicals; 380 nm for topotecan; all using a bandwidth of 8 nm c.p. reference at 700 nm) and fluorescence (Ex 400 nm; Em 545 nm; PMT-gain 18). Injections were 5-20 μL depending on the sample concentrations and quantifications were calculated from the fluorescence peak areas after calibration (the detector response was effectively linear over the sensitive range). Topotecan could be reliably identified even at extremely low concentrations (10-20 ng/mL) by its intrinsic fluorescence and retention time (3.33±0.03 min; N=45). […]

[2] = 7T MRI T1/T2 assessment and relaxometry of liposome samples; format: physicochemical; set-up: r1: unit not given here; conditions: for T1 (s) 1 param / T1 (s) 3 param / T1 (s) Image J / T2 (s) 1 param / T2 (s) Image J / T2 (s) 3 param: 7T
Source text: A series of MRI T1/T2 assessment studies have been carried out using a 7 T pre clinical MRI scanner, with the assistance of Dr Po-Wah So (James Black Centre, KCL). The focus here has been to derive reliable r1/r2 relaxivities per molar Gd(III) for liposome produced using the [Gd]DOTA.DSA, [Gd]DOTA.Ahx.DSA and [Gd]DOTA.Aoc.DSA. This is reliant on both accurate measurements of the T1/T2 effects and also the exact gadolinium concentration in the prepared liposome suspensions. The extrusion and gel filtration processes make this latter hard to estimate, so Inductively Coupled Plasma Mass Spectrometry (ICP-MS) quantification is being assessed. This is turn required testing of suitable acid digestion conditions since the lipid-chelates may not be analysed directly. For both MRI and ICP-MS, commercial Gadovist is being used a positive control contrast agent of known Gd content. Assessment of temperature, buffer salt and liposome size effects on T1/T2 are also underway.
FIGS. 22 and 23 show Example T1 and T2 brightness traces for controls and liposome samples.
MRI data (T1, T2 lower is brighter) is shown Table 1:
Comparison of liposomes containing different lipids as measured at 7T Magnet*.

[3] = 19.6 °C, conc >0.3 mM, dil not given
[4] = 19.6 °C, dil 1 (liposomes 20 mg/mL; Gadovist 3.1 or 3 mM), Gadovist 3 mM
[5] = 19.6 °C, dil 1 (liposomes 20 mg/mL; Gadovist 3.1 or 3 mM), Gadovist 3.1 mM
[6] = 35.5 °C, conc >0.3 mM, dil not given

CC[C@@]1(O)C(=O)OCc2c1cc1n(c2=O)Cc2cc3c(CN(C)C)c(O)ccc3nc2-1 [topotecan]
drug clearance from the blood pool [1]: cleared from the blood pool in mins

O=C([O-])CN1CCN(CC(=O)[O-])CCN([C@H](CO)[C@H](O)CO)CCN(CC(=O)[O-])CC1.[Gd+3] (racemic) [Gadovist]
T1 (s) 1 param [2, 3]: 2.033 s | T1 (s) 3 param [2, 3]: 2.061 s | T1 (s) Image J [2, 3]: 2.061 s | T2 (s) 1 param [2, 3]: 0.206 s | T2 (s) Image J [2, 3]: 0.1 s | T1 (s) 1 param [2, 4]: 0.09174 s | T1 (s) 3 param [2, 4]: 0.07712 s | T1 (s) Image J [2, 4]: 0.092 s | T2 (s) 1 param [2, 4]: 0.04691 s | T2 (s) 3 param [2, 4]: 0.0488 s | T2 (s) Image J [2, 4]: 0.047 s | T1 (s) 1 param [2, 5]: 0.072 s | T1 (s) 3 param [2, 5]: 0.084 s | T1 (s) Image J [2, 5]: 0.084 s | T2 (s) 1 param [2, 5]: 0.0431 s and 0.0426 s | T2 (s) 3 param [2, 5]: 0.0422 s and 0.0419 s | T2 (s) Image J [2, 5]: 0.042 s | T1 (s) 1 param [2, 6]: 2.602 s | T1 (s) 3 param [2, 6]: 2.617 s | T1 (s) Image J [2, 6]: 2.606 s | T2 (s) 1 param [2, 6]: 0.153 s | T2 (s) Image J [2, 6]: 0.1 s | T1 (s) 1 param ([2]; 39.5 °C, dil 1 (Gadovist 3 mM)): 0.1297 s | T1 (s) 3 param ([2]; 39.5 °C, dil 1 (Gadovist 3 mM)): 0.1138 s | T1 (s) Image J ([2]; 39.5 °C, dil 1 (Gadovist 3 mM)): 0.13 s | T2 (s) 1 param ([2]; 39.5 °C, dil 1 (Gadovist 3 mM)): 0.05335 s | T2 (s) 3 param ([2]; 39.5 °C, dil 1 (Gadovist 3 mM)): 0.05578 s | T2 (s) Image J ([2]; 39.5 °C, dil 1 (Gadovist 3 mM)): 0.053 s | r1 ([2]; measured at 7T Magnet): 4.8
